The target of test [1] is isolated recombinant JAK1 kinase domain (Homo sapiens (Human), UniProt P23458). Kind of test: JAK1 enzyme assay (Caliper LabChip, peptide phosphorylation). It counts as biochemical. Conditions: isolated recombinant JAK1 kinase domain, 25 μM ATP.
The target in test [2] is isolated recombinant JAK2 kinase domain (Homo sapiens (Human), UniProt O60674). Kind of test: JAK2 enzyme assay (Caliper LabChip, peptide phosphorylation). It counts as biochemical. The conditions noted are these: 25 μM ATP.
For test [3], the system named is JAK1-dependent STAT6 phosphorylation downstream of IL-13 stimulation in TF-1 human erythroleukemia cells. Kind of test: JAK1 pathway assay in TF-1 cells (IL-13-pSTAT6, MSD). The format is cell-based. The conditions noted are these: Homo sapiens, TF-1, TF-1 cells, read-out: IL13-pSTAT6 EC50_TF-1. The method in brief:
(§1)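 Compound preincubation lasted 1 hr for BEAS-2B cells in complete growth medium and 30 min for GM-CSF-starved TF-1 cells in serum-free medium. EC50 values were determined.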

The test system of test [4] is JAK1-dependent STAT6 phosphorylation downstream of IL-13 stimulation in BEAS-2B human bronchial epithelial cells. Kind of test: JAK1 pathway assay in BEAS-2B cells (IL-13-pSTAT6, MSD). It counts as cell-based. Conditions: read-out: IL13-pSTAT6 EC50 (uM)_BEAS-2B. The method in brief: as §1

As usually defined, the Ki is a dissociation constant, usually derived from enzyme kinetics or from competition with a known ligand.

Chain of isolated recombinant JAK1 kinase domain (P23458 875-1153): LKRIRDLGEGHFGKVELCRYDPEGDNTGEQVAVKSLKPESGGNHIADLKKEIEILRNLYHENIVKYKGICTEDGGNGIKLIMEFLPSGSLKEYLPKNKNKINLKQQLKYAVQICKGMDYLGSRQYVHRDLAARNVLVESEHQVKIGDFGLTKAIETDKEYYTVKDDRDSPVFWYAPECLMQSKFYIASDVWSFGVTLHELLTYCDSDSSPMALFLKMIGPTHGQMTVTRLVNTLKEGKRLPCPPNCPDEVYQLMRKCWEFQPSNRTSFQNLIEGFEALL
Chain of isolated recombinant JAK2 kinase domain (O60674 849-1124): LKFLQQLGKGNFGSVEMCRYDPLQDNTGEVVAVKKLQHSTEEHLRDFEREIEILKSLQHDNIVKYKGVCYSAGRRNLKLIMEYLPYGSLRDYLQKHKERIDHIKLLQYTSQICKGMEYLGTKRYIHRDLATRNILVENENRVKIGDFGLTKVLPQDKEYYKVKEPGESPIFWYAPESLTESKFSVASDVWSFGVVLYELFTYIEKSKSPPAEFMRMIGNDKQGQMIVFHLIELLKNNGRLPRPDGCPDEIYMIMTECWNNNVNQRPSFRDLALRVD

With `CC1(CN(CCC(F)(F)F)C2CCN(C(=O)Cn3cc(NC(=O)c4cnn5cccnc45)c(-c4cc(Cl)ccc4OC(F)F)n3)CC2)COC1` [Example 117, N-[3-[5-chloro-2-(difluoromethoxy)phenyl]-1-[2-[4-[(3-methyloxetan-3-yl)methyl-(3,3,3-trifluoropropyl)amino]-1-piperidyl]-2-oxo-ethyl]pyrazol-4-yl]pyrazolo[1,5-a]pyrimidine-3-carboxamide], the Ki in test [1] is 0.51 nM; in test [2], 1.13 nM. In addition, the figures for the EC50 in test [3] and in test [4] were 8.6 nM and 0.0546 µM, respectively.

`O=C(Nc1cn(CC(=O)N2CCC(N(CCC(F)(F)F)Cc3ccccc3)CC2)nc1-c1cc(Cl)ccc1OC(F)F)c1cnn2cccnc12` [Example 118, N-[1-[2-[4-[benzyl(3,3,3-trifluoropropyl)amino]-1-piperidyl]-2-oxo-ethyl]-3-[5-chloro-2-(difluoromethoxy)phenyl]pyrazol-4-yl]pyrazolo[1,5-a]pyrimidine-3-carboxamide]: the inhibition constant (Ki) amounted to 2.57 nM in test [1] and 4.45 nM in test [2]. Also, the EC50 in test [3] worked out at 100 nM; in test [4], 0.303 µM.

With `CN(CCCc1ccccc1)C1CCN(C(=O)Cn2cc(NC(=O)c3cnn4cccnc34)c(-c3cc(Cl)ccc3OC(F)F)n2)CC1` [Example 123, N-[3-[5-chloro-2-(difluoromethoxy)phenyl]-1-[2-[4-[methyl(3-phenylpropyl)amino]-1-piperidyl]-2-oxo-ethyl]pyrazol-4-yl]pyrazolo[1,5-a]pyrimidine-3-carboxamide], the Ki stood at 2.23 nM in test [1] and 1.63 nM in test [2]. Besides, the EC50 in test [3] was 7.6 nM; in test [4] it was 0.0487 µM.

On to `O=C(Nc1cn(CC(=O)N2CCC(NC(c3ccccc3)C(F)(F)F)CC2)nc1-c1cc(Cl)ccc1OC(F)F)c1cnn2cccnc12` (stereo not drawn) [Example 132, N-[3-[5-chloro-2-(difluoromethoxy)phenyl]-1-[2-oxo-2-[4-[(2,2,2-trifluoro-1-phenyl-ethyl)amino]-1-piperidyl]ethyl]pyrazol-4-yl]pyrazolo[1,5-a]pyrimidine-3-carboxamide], for which the Ki in test [1] is 0.57 nM; in test [2], 1.27 nM. The EC50 in test [3] worked out at 3.1 nM; in test [4] it was 0.0973 µM.

With `CC(=O)N1CCC(N2CCC(n3cc(NC(=O)c4c(N)nn5cccnc45)c(-c4cc(Cl)ccc4OC(F)F)n3)CC2)CC1` [Example 144, N-[1-[1-(1-acetyl-4-piperidyl)-4-piperidyl]-3-[5-chloro-2-(difluoromethoxy)phenyl]pyrazol-4-yl]-2-amino-pyrazolo[1,5-a]pyrimidine-3-carboxamide], the inhibitory constant (Ki) in test [1] is 0.54 nM; in test [2], 0.17 nM. The EC50 in test [3] was found to be 12.8 nM; in test [4] it was 0.0213 µM.

In the case of `CNC(=O)CCCN1CCC(n2cc(NC(=O)c3c(N)nn4cccnc34)c(-c3cc(Cl)ccc3OC(F)F)n2)CC1` [Example 149, 2-amino-N-[3-[5-chloro-2-(difluoromethoxy)phenyl]-1-[1-[4-(methylamino)-4-oxo-butyl]-4-piperidyl]pyrazol-4-yl]pyrazolo[1,5-a]pyrimidine-3-carboxamide], the Ki in test [1] was 0.81 nM; in test [2] it was 0.2 nM. The EC50 is 8.3 nM in test [3] and 0.0198 µM in test [4].

In the case of `CN(CCC#N)C1CCN(c2nc(-c3cc(Cl)ccc3OC(F)F)c(NC(=O)c3cnn4cccnc34)s2)CC1` [Example 189, Pyrazolo[1,5-a]pyrimidine-3-carboxylic acid (4-(5-chloro-2-difluoromethoxy-phenyl)-2-{4-[(2-cyano-ethyl)-methyl-amino]-piperidin-1-yl}-thiazol-5-yl)-amide], the Ki amounted to 2.59 nM in test [1] and 1.61 nM in test [2]. Also, the EC50 worked out at 5.3 nM in test [3] and 0.02 µM in test [4].

In the case of `CN(C)CC1CCN(c2nc(-c3cc(Cl)ccc3OC(F)F)c(NC(=O)c3cnn4cccnc34)s2)CC1` [Example 190, N-[4-[5-chloro-2-(difluoromethoxy)phenyl]-2-[4-[(dimethylamino)methyl]-1-piperidyl]thiazol-5-yl]pyrazolo[1,5-a]pyrimidine-3-carboxamide], the inhibition constant Ki in test [1] came to 2.69 nM; in test [2], 2.02 nM. The results for the EC50 in test [3] and in test [4] were 14.6 nM and 0.0098 µM, respectively.

As for `CN(CC1(C)COC1)C1CCN(c2nc(-c3cc(Cl)ccc3OC(F)F)c(NC(=O)c3cnn4cccnc34)s2)CC1` [Example 200, N-[4-[5-chloro-2-(difluoromethoxy)phenyl]-2-[4-[methyl-[(3-methyloxetan-3-yl)methyl]amino]-1-piperidyl]thiazol-5-yl]pyrazolo[1,5-a]pyrimidine-3-carboxamide], the Ki worked out at 1.24 nM in test [1] and 1.07 nM in test [2]. Besides, the results for the EC50 in test [3] and in test [4] were 5.9 nM and 0.0254 µM, respectively.

For the compound `CN(CC1(C#N)CCCCC1)C1CCN(C(=O)C2CCN(c3nc(-c4cc(Cl)ccc4OC(F)F)c(NC(=O)c4cnn5cccnc45)s3)CC2)CC1` [Example 204, N-[4-[5-chloro-2-(difluoromethoxy)phenyl]-2-[4-[4-[(1-cyanocyclohexyl)methyl-methyl-amino]piperidine-1-carbonyl]-1-piperidyl]thiazol-5-yl]pyrazolo[1,5-a]pyrimidine-3-carboxamide], the inhibitory constant (Ki) in test [1] amounted to 2 nM; in test [2], 1.41 nM. Besides, the EC50 was determined as 7.9 nM in test [3] and 0.172 µM in test [4].

In the case of `CC(C)CN1CCC2(CCN(C(=O)Cn3cc(NC(=O)c4cnn5cccnc45)c(-c4cc(Cl)ccc4OC(F)F)n3)CC2)C1` [Example 225, N-[3-[5-chloro-2-(difluoromethoxy)phenyl]-1-[2-(2-isobutyl-2,8-diazaspiro[4.5]decan-8-yl)-2-oxo-ethyl]pyrazol-4-yl]pyrazolo[1,5-a]pyrimidine-3-carboxamide], the inhibition constant (Ki) in test [1] is 0.39 nM; in test [2], 1.29 nM. Moreover, the EC50 was 5 nM in test [3] and 0.0423 µM in test [4].

As to `CN1CCN(C(=O)Cn2cc(NC(=O)c3cnn4cccnc34)c(-c3cc(Cl)ccc3OC(F)F)n2)CC1` [Example 227, Pyrazolo[1,5-a]pyrimidine-3-carboxylic acid {3-(5-chloro-2-difluoromethoxyphenyl)-1-[2-(4-methylpiperazin-1-yl)-2-oxoethyl]-1H-pyrazol-4-yl}amide], the Ki in test [1] is 0.55 nM; in test [2], 0.93 nM. The EC50 in test [3] is 3.6 nM; in test [4] it was 0.0271 µM.

With `O=C(Nc1cn(CC(=O)N2CCN(CCO)CC2)nc1-c1cc(Cl)ccc1OC(F)F)c1cnn2cccnc12` [Example 228, N-[3-[5-chloro-2-(difluoromethoxy)phenyl]-1-[2-[4-(2-hydroxyethyl)piperazin-1-yl]-2-oxo-ethyl]pyrazol-4-yl]pyrazolo[1,5-a]pyrimidine-3-carboxamide], the inhibition constant Ki amounted to 0.47 nM in test [1] and 0.89 nM in test [2]. Besides, the EC50 was found to be 11.1 nM in test [3] and 0.0655 µM in test [4].

Turning to `CN1CCN(C(=O)Cn2cc(NC(=O)c3cnn4cccnc34)c(-c3cc(Cl)ccc3OC(F)F)n2)C[C@H]1CO` [Example 235, N-[3-[5-chloro-2-(difluoromethoxy)phenyl]-1-[2-[(3S)-3-(hydroxymethyl)-4-methyl-piperazin-1-yl]-2-oxo-ethyl]pyrazol-4-yl]pyrazolo[1,5-a]pyrimidine-3-carboxamide], the values for the inhibition constant Ki in test [1] and in test [2] were 0.58 nM and 1.08 nM, respectively. Further, the EC50 in test [3] was determined as 21.3 nM; in test [4], 0.114 µM.

For `O=C(Nc1cn(CC(=O)N2CCC(CO)CC2)nc1-c1cc(Cl)ccc1OC(F)F)c1cnn2cccnc12` [Example 274, N-[3-[5-chloro-2-(difluoromethoxy)phenyl]-1-[2-[4-(hydroxymethyl)-1-piperidyl]-2-oxo-ethyl]pyrazol-4-yl]pyrazolo[1,5-a]pyrimidine-3-carboxamide], the inhibition constant (Ki) in test [1] was 0.34 nM; in test [2], 0.91 nM. Further, the EC50 came out at 3.2 nM in test [3] and 0.0131 µM in test [4].

Consider `CC1(O)CCN(C(=O)Cn2cc(NC(=O)c3cnn4cccnc34)c(-c3cc(Cl)ccc3OC(F)F)n2)CC1` [Example 280, N-[3-[5-chloro-2-(difluoromethoxy)phenyl]-1-[2-(4-hydroxy-4-methyl-1-piperidyl)-2-oxo-ethyl]pyrazol-4-yl]pyrazolo[1,5-a]pyrimidine-3-carboxamide], for which the Ki was determined as 0.39 nM in test [1] and 0.81 nM in test [2]. Further, the figures for the EC50 in test [3] and in test [4] were 4.3 nM and 0.0215 µM, respectively.

As to `O=C(Nc1cn(CC(=O)N2CCOCC2)nc1-c1cc(Cl)ccc1OC(F)F)c1cnn2cccnc12` [Example 288, N-[3-[5-chloro-2-(difluoromethoxy)phenyl]-1-(2-morpholino-2-oxo-ethyl)pyrazol-4-yl]pyrazolo[1,5-a]pyrimidine-3-carboxamide], the figures for the inhibition constant (Ki) in test [1] and in test [2] were 0.58 nM and 1.11 nM, respectively. Moreover, the figures for the EC50 in test [3] and in test [4] were 2.8 nM and 0.0363 µM, respectively.

Take `O=C(Cn1cc(NC(=O)c2cnn3cccnc23)c(-c2cc(Cl)ccc2OC(F)F)n1)NCC1(CO)CC1` [Example 291, N-[3-[5-chloro-2-(difluoromethoxy)phenyl]-1-[2-[[1-(hydroxy-methyl)cyclopropyl]methylamino]-2-oxo-ethyl]pyrazol-4-yl]pyrazolo[1,5-a]pyrimidine-3-carboxamide]: the inhibition constant (Ki) in test [1] stood at 0.54 nM; in test [2] it was 0.55 nM. Besides, the EC50 stood at 3.6 nM in test [3] and 0.0317 µM in test [4].

For the origin of these results see US9346815B2, “5-chloro-2-difluoromethoxyphenyl pyrazolopyrimidine compounds, compositions and methods of use thereof” (Genentech, Inc., priority 2014, dated 2016).
